Test results taken from US20030215462A1, “Use of UGT inhibitors to increase bioavailability” (priority 2001, published 2003).

Assays:
UGT1A9 = target: T1, UGT1A9 (Homo sapiens, UniProt O60656); test: Inhibition of raloxifene glucuronidation by recombinant UGT1A9 Supersomes; conditions: for activity at 15 min, 25 µM / activity at 15 min, 50 µM: human, Supersomes with recombinant human UGT1A9, pH 7.5, probe raloxifene 50 μM; for Inhibition of raloxifene glucuronidation, UGT1A9, second line per inhibitor (G2): second line (G2, metabolite not given), raloxifene 50 μM, 250 μg/ml Supersomes, 1 mM UDPGA, 15 min
T1 sequence (O60656 26-530): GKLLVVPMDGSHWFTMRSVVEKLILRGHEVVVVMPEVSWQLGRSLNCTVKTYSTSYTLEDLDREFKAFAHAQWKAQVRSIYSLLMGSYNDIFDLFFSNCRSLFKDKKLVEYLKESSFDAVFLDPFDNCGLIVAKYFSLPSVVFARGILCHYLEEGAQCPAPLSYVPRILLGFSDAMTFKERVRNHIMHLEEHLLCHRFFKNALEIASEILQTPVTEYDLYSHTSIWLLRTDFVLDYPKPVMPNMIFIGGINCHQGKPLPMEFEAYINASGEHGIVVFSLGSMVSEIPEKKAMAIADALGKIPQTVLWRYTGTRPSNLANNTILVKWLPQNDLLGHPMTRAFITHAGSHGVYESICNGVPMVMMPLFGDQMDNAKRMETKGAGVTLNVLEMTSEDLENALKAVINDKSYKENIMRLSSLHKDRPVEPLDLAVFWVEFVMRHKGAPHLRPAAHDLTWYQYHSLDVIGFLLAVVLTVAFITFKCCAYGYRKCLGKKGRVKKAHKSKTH

[1] = test system: UGT enzymes of pooled human jejunum microsomes; test: Inhibition of 2ME2 glucuronidation (MG1) in pooled human jejunum microsomes; format: biochemical; conditions: jejunum HJ61, 2ME2 50 μM
Excerpt: Compounds were eluted using a binary solvent gradient system where solvent A was dilute phosphoric acid (pH 3) and solvent B was 80:20 acetonitrile-methanol. […] Detection was at 280 nm.

[2] = test system: UGT enzymes of human liver microsomes; test: Inhibition of raloxifene glucuronidation (G1, G2) in human liver microsomes; format: biochemical; conditions: for % of control metabolism (SD, n = 3), raloxifene glucuronide G1 / % of control metabolism (SD, n = 3), raloxifene glucuronide G2: human liver microsomes 250 μg/ml, 15 min
Excerpt: Compounds were eluted using a binary solvent gradient system. […] Solvent B was methanol. […] Detection was at 280 nm.

UGT1A10 = target: T2, UGT1A10 (Homo sapiens, UniProt Q9HAW8); test: Inhibition of raloxifene glucuronidation by recombinant UGT1A10 Bacculosomes; conditions: human, Bacculosomes with recombinant human UGT1A10, pH 7.5, probe raloxifene 50 μM; for activity at 15 min, 25 µM: inhibitor 25 μM; for activity at 15 min, 50 µM: inhibitor 50 μM
T2 sequence (Q9HAW8 26-530): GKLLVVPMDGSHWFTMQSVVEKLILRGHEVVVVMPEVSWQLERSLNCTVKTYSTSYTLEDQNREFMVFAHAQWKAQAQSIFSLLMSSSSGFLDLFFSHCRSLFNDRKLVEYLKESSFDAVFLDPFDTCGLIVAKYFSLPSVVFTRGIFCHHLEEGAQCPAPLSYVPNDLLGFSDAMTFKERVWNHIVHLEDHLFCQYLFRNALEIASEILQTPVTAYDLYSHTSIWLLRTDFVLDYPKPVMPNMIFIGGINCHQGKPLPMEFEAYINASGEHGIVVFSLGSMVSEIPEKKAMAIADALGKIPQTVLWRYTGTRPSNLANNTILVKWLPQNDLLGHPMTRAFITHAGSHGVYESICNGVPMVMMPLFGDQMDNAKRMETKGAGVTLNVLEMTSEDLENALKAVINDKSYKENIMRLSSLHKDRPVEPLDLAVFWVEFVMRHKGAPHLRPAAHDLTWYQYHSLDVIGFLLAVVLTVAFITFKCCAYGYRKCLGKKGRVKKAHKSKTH
Protocol: (§1) Compounds were eluted using a binary solvent gradient system. Solvent A was water brought to pH 8 with NH4OH. Solvent B was methanol. Solvent flow rate was 1 ml/min and the column temperature was maintained at 50° C. Detection was at 280 nm. […] The system was then returned to the initial conditions and equilibrated for 3 min.

UGT1A3 = target: T3, UGT1A3 (Homo sapiens, UniProt P35503); test: Inhibition of raloxifene glucuronidation by recombinant UGT1A3 Supersomes; conditions: human; for activity at 15 min, 25 µM: inhibitor 25 μM; for activity at 15 min, 50 µM: inhibitor 50 μM
T3 sequence (P35503 29-534): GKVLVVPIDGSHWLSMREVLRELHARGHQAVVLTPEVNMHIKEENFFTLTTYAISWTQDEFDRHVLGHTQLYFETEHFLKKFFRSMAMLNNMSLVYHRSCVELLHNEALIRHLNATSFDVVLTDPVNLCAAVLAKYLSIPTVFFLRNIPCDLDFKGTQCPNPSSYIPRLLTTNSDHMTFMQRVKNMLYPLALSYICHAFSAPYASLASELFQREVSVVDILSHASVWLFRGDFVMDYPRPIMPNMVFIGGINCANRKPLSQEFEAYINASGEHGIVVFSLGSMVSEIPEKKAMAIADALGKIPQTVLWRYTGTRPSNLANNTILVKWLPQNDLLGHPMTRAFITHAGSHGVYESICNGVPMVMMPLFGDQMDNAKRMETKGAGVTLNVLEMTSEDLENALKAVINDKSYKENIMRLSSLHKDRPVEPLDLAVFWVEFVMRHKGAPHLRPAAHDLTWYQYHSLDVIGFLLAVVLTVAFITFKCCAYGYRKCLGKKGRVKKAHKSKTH
Protocol: as §1

[3] = inhibitor 10 μM, raloxifene 50 μM
[4] = inhibitor 25 μM, raloxifene 50 μM
[5] = inhibitor 50 μM, raloxifene 50 μM
[6] = inhibitor 100 μM, raloxifene 50 μM
[7] = inhibitor 500 μM, raloxifene 50 μM
[8] = liver lot 032101, inhibitor 50 μM
[9] = liver lot 062101, inhibitor 50 μM
[10] = liver lot 083000, inhibitor 50 μM
[11] = raloxifene 50 μM, inhibitor 10 μM
[12] = raloxifene 50 μM, inhibitor 25 μM
[13] = raloxifene 50 μM, inhibitor 50 μM
[14] = raloxifene 50 μM, inhibitor 100 μM
[15] = formation of glucuronide G1, % of control metabolism, raloxifene G1, UGT1A10
[16] = formation of glucuronide G2, % of control metabolism, raloxifene G2, UGT1A10
[17] = Supersomes with recombinant human UGT1A3, pH 7.5, probe raloxifene 50 μM, formation of glucuronide G1, % of control metabolism, raloxifene G1, UGT1A3
[18] = Supersomes with recombinant human UGT1A3, pH 7.5, probe raloxifene 50 μM, formation of glucuronide G2, % of control metabolism, raloxifene G2, UGT1A3
[19] = recombinant UGT1A3 Supersomes, pH 7.5, probe raloxifene 50 μM (formation of glucuronide G1), Inhibition of raloxifene glucuronidation, G1, UGT1A3, G1, raloxifene 50 μM, 250 μg/ml Supersomes, 1 mM UDPGA, 15 min
[20] = recombinant UGT1A3 Supersomes, pH 7.5, probe raloxifene 50 μM (formation of glucuronide G2), Inhibition of raloxifene glucuronidation, G2, UGT1A3, G2, raloxifene 50 μM, 250 μg/ml Supersomes, 1 mM UDPGA, 15 min

## O=C(O[C@@H]1Cc2c(O)cc(O)cc2O[C@H]1c1cc(O)c(O)c(O)c1)c1cc(O)c(O)c(O)c1 [Gallocatechin gallate]
UGT1A9; formation of glucuronide G1, % of control metabolism, raloxifene G1, UGT1A9, inhibitor 25 μM
  activity at 15 min, 25 µM: 72%
UGT1A9; formation of glucuronide G1, % of control metabolism, raloxifene G1, UGT1A9, inhibitor 50 μM
  activity at 15 min, 50 µM: 47%
UGT1A9; formation of glucuronide G2, % of control metabolism, raloxifene G2, UGT1A9, inhibitor 25 μM
  activity at 15 min, 25 µM: 63%
UGT1A9; formation of glucuronide G2, % of control metabolism, raloxifene G2, UGT1A9, inhibitor 50 μM
  activity at 15 min, 50 µM: 44%
UGT1A9; inhibitor 25 μM
  Inhibition of raloxifene glucuronidation, UGT1A9, second line per inhibitor (G2): 63 (4)
UGT1A9; inhibitor 50 μM
  Inhibition of raloxifene glucuronidation, UGT1A9, second line per inhibitor (G2): 44 (2)
[1]; inhibitor 10 μM
  residual metabolism (% of control), 2ME2 MG1: 69 (3) %
[1]; inhibitor 25 μM
  residual metabolism (% of control), 2ME2 MG1: 51 (2) %
[1]; inhibitor 50 μM
  residual metabolism (% of control), 2ME2 MG1: 31 (1) %
[1]; inhibitor 100 μM
  residual metabolism (% of control), 2ME2 MG1: 9 (1) %
[2]; [3]
  % of control metabolism (SD, n = 3), raloxifene glucuronide G1: 80 (6) %
  % of control metabolism (SD, n = 3), raloxifene glucuronide G2: 83 (4) %
[2]; [4]
  % of control metabolism (SD, n = 3), raloxifene glucuronide G1: 62 (7) %
  % of control metabolism (SD, n = 3), raloxifene glucuronide G2: 64 (4) %
[2]; [5]
  % of control metabolism (SD, n = 3), raloxifene glucuronide G1: 45 (2) %
  % of control metabolism (SD, n = 3), raloxifene glucuronide G2: 47 (2) %
[2]; [6]
  % of control metabolism (SD, n = 3), raloxifene glucuronide G1: 20 (1) %
  % of control metabolism (SD, n = 3), raloxifene glucuronide G2: 29 (1) %
[2]; [7]
  % of control metabolism (SD, n = 3), raloxifene glucuronide G1: 0 (0) %
  % of control metabolism (SD, n = 3), raloxifene glucuronide G2: 0 (0) %
[2]; [8]
  % of control metabolism, raloxifene G1: 29 (1) %
  % of control metabolism, raloxifene G2: 28 (0) %
[2]; [9]
  % of control metabolism, raloxifene G1: 40 (3) %
  % of control metabolism, raloxifene G2: 22 (1) %
[2]; [10]
  % of control metabolism, raloxifene G1: 45 (2) %
  % of control metabolism, raloxifene G2: 47 (2) %
[2]; [11]
  % of control metabolism, raloxifene G1: 80 (6) %
  % of control metabolism, raloxifene G2: 83 (4) %
[2]; [12]
  % of control metabolism, raloxifene G1: 62 (7) %
  % of control metabolism, raloxifene G2: 64 (4) %
[2]; [13]
  % of control metabolism, raloxifene G1: 45 (2) %
  % of control metabolism, raloxifene G2: 47 (2) %
[2]; [14]
  % of control metabolism, raloxifene G1: 20 (1) %
  % of control metabolism, raloxifene G2: 29 (1) %
UGT1A10; [15]
  activity at 15 min, 25 µM: 64%
  activity at 15 min, 50 µM: 49%
UGT1A10; [16]
  activity at 15 min, 25 µM: 68%
  activity at 15 min, 50 µM: 48%
UGT1A3; [17]
  activity at 15 min, 25 µM: 65%
  activity at 15 min, 50 µM: 39%
UGT1A3; [18]
  activity at 15 min, 25 µM: 70%
  activity at 15 min, 50 µM: 38%
UGT1A3; [19]
  activity at 15 min, 25 µM: 64%
  activity at 15 min, 50 µM: 39%
UGT1A3; [20]
  activity at 15 min, 25 µM: 70%
  activity at 15 min, 50 µM: 38%
